{"source": "patent US12306176B2", "about": "“Microfluidic bi-directional migration assay” (Ohio State Innovation Foundation, priority 2017, dated 2025)", "system": "MDA-MB-231 cells", "experiment": "Microfluidic bi-directional migration (MBDM) assay, mean migration speed and persistence", "type": "cell-based, human", "excerpt": "To quantify the effects of iEF treatment on directed cell migration speed and persistence, a custom microfluidic bi-directional microtrack (MBDM) assay was developed that enables real-time monitoring with time-lapse microscopy of cell motility.\nIn this study, the EF sensing mechanisms of breast cancer cells in response to asymmetric iEFs (<100 μV/cm) was investigated. Using a MBDM assay, changes in the speed and persistence of spontaneously migrating MDA-MB-231 breast cancer cells were observed. This cell type was selected for these studies because it is a putative metastatic breast cancer cell line that is also responsive to gradients of a chemoattractant such as EGF (Wang S J, et al. (2004) Exp Cell Res 300 (1):180-189; Wu A, et al. (2013) Proc Natl Acad Sci U S A 110(40):16103-16108). […] This configuration enables direct comparison of cell movement in response to iEFs applied primarily with the direction of cell migration (“parallel”) or against the direction of cell migration (“anti-parallel”) within the same microfluidic device. Here, the field direction is defined as the direction that has the higher peak magnitude, as well as higher time-average field strength.\nTo calculate persistence, the following protocol was followed for each cell tracked in a microtrack of the MBDM assay. A cell starts at position Pt at time t. After a single time increment, dt, the cell moves to a new position, Pt+dt. The distance traveled during this time is the absolute difference in the two positions denoted as Li: Li=|Pt+dt−Pt|\nThe total distance traveled is then the sum of all distances traveled during N time increments denoted as Lt. Additionally, the total time of travel is the number of time increments multiplied by the size of the time increments denoted as Tt.\nThe displacement is simply the difference between the final and initial position: Ld=|PFinal−PInitial|\nThe MBDM assay was designed to have three ports separated by 700 μm long arrays of parallel microtracks (FIG. 1D). The dimension of each port was 50 mm×15 mm. Cells were seeded in the center port and the top and bottom ports were designated as cell collection port and/or chemokine source reservoir port depending on the experimental condition. Microchannels were designed to have a square cross-section of 20 μm×20 μm. The cross-section dimensions were on the same order as the size of single cells and mimic the dimensions of pre-existing microtracks available to cells in-vivo (Kraning-Rush C M, et al. (2013) lntegr Biol (Camb). 5 (3):606-616). Moreover, these migratory tracks are representative of physiologically relevant matrix metalloproteinase independent cancer-cell migration mode during metastasis (Friedl P & Alexander S (2011) Cell 147 (5):992-1009; Wolf K, et al. (2009) Semin Cell Dev Biol. 20 (8):931-941; Friedl P & Wolf K (2003) Nat Rev Cancer. 3 (5):362; Wolf K, et al. (2007) Nat Cell Biol. 9 (8):893; Wolf K, et al. (2003) J Cell Biol. 160 (2):267-277). The bi-directional design of this assay allows cells to migrate in either direction from the seeding port and provides a better understanding and quantification of the directional bias of external cues such as chemokine gradients and the directional effects of applied iEFs. The large ports for cell seeding ensure uniform seeding density, excellent cell viability, and repeatability.\nCells were washed in culture plates with 1×PBS solution, treated with 0.05% trypsin-EDTA solution (Sigma-Aldrich), and then counted using a hemocytometer. Cells (2×10^5) suspended in migration media were seeded in the middle port (seeding port) with an extremely small flow from the collection ports to the seeding port, which equilibrated in less than 15 minutes. The cells inside the devices were then incubated for 12 hours in migration media following which the media was aspirated and replaced with new media based on the experimental conditions. […]", "key": {"[1]": {"settings": "MK2206 2.5 μM alone, no EGF, no iEF"}, "[2]": {"settings": "MK2206 2.5 μM alone, under EGF gradient (25 ng/mL)"}, "[3]": {"settings": "MK2206 2.5 μM plus anti-parallel iEFs, under EGF gradient"}, "[4]": {"settings": "MK2206 2.5 μM plus parallel iEFs, under EGF gradient"}}}
{"smiles": "NC1(c2ccc(-c3nc4ccn5c(=O)[nH]nc5c4cc3-c3ccccc3)cc2)CCC1", "note": "[MK2206]", "values": [{"measurement": "increase of mean migration speed compared to untreated controls", "setting": "[1]", "value": 9, "unit": "%"}, {"measurement": "reduction of persistence compared to untreated controls", "setting": "[1]", "value": 31, "unit": "%"}, {"measurement": "reduction of persistence below EGF-gradient conditions", "setting": "MK2206 2.5 μM alone, under EGF gradient", "value": 9, "unit": "%"}, {"measurement": "mean migration speed", "setting": "[2]", "value": 0.36, "unit": "μm/min"}, {"measurement": "reduction of mean migration speed compared to EGF-gradient condition", "setting": "[2]", "value": 16, "unit": "%"}, {"measurement": "persistence compared to MK2206 treatment alone", "setting": "MK2206 2.5 μM co-applied with anti-parallel iEFs, no EGF", "value": "significantly increased"}, {"measurement": "average migration speed compared to untreated controls", "setting": "MK2206 2.5 μM co-applied with iEFs, parallel or anti-parallel, no EGF", "value": "comparable modest decrease"}, {"measurement": "mean migration speed", "setting": "[3]", "value": 0.31, "unit": "μm/min"}, {"measurement": "reduction of mean migration speed below EGF controls", "setting": "[3]", "value": 28, "unit": "%"}, {"measurement": "reduction of persistence from the EGF control", "setting": "[3]", "value": 26, "unit": "%"}, {"measurement": "mean migration speed", "setting": "[4]", "value": 0.26, "unit": "μm/min"}, {"measurement": "reduction of mean migration speed below EGF controls", "setting": "[4]", "value": 40, "unit": "%"}, {"measurement": "reduction of persistence from the EGF control", "setting": "[4]", "value": 19, "unit": "%"}, {"measurement": "directional response of migration speed to iEF", "setting": "MK2206 treatment, no exogenous EGF gradient", "value": "nullified"}]}
